Results on five molecules are retold here after ChEMBL document CHEMBL1152596, “Inhibition of serotonin and norepinephrine reuptake and inhibition of phosphodiesterase by multi-target inhibitors as potential agents for depression” (Bioorg Med Chem, 2009).

In experiment [1] the target is T1, Sodium-dependent noradrenaline transporter (Homo sapiens, UniProt P23975).
Description: Inhibition of [3H]NE reuptake at human NET expressed in HEK cells
In experiment [2] the target is T2, Sodium-dependent serotonin transporter (Homo sapiens, UniProt P31645).
Description: Inhibition of [3H]5HT reuptake at human SERT expressed in HEK293 cells
In experiment [3] the target is T1, Sodium-dependent noradrenaline transporter. Kind of experiment: biochemical.
Description: Displacement of [125I]RTI-55 from human recombinant NET expressed in HEK293 cells by scintillation counting
Experiment [4] deals with T3, Sodium-dependent dopamine transporter (Homo sapiens, UniProt Q01959).
Description: Inhibition of [3H]DA reuptake at human DAT expressed in HEK293 cells
Experiment [5] has as its target 3',5'-cyclic-AMP phosphodiesterase 4D (Homo sapiens, UniProt Q08499).
Description: Inhibition of PDE4D2 assessed as cAMP hydrolysis
For experiment [6], the target named is T2, Sodium-dependent serotonin transporter. The experiment is described as follows: biochemical.
Description: Displacement of [125I]RTI-55 from human recombinant SERT expressed in HEK293 cells
For experiment [7], the target named is T3, Sodium-dependent dopamine transporter. Kind of experiment: biochemical.
Description: Displacement of [125I]RTI-55 from human recombinant DAT expressed in HEK293 cells

Where only a bound is given, the exact number is not on record here.

The IC50 is the concentration that inhibits the measured activity by half. In general, Ki refers to a measure of affinity in units of concentration, obtained from inhibition or displacement. A low value points to tighter binding.

Sequence of 3',5'-cyclic-AMP phosphodiesterase 4D (Q08499 whole entry): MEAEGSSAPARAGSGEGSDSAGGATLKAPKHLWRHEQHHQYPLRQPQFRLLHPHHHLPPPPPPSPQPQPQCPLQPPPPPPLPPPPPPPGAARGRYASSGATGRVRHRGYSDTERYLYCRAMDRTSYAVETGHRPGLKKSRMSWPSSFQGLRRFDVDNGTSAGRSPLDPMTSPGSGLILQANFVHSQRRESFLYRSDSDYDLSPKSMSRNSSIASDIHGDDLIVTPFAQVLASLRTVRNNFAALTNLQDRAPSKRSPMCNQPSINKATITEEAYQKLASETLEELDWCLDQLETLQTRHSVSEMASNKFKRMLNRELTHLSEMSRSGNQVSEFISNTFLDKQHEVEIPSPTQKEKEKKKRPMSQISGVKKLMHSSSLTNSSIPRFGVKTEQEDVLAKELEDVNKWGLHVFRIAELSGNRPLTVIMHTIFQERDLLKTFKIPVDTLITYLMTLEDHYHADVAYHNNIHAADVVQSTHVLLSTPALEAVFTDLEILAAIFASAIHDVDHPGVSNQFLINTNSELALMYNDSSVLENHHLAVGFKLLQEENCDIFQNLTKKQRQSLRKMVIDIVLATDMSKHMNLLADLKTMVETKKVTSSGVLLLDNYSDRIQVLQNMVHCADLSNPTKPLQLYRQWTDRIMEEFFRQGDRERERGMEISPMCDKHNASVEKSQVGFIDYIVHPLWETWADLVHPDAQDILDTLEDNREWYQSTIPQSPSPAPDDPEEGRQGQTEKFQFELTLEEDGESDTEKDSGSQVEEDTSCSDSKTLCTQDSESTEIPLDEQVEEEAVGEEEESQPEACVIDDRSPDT
T3 sequence (Q01959 whole entry): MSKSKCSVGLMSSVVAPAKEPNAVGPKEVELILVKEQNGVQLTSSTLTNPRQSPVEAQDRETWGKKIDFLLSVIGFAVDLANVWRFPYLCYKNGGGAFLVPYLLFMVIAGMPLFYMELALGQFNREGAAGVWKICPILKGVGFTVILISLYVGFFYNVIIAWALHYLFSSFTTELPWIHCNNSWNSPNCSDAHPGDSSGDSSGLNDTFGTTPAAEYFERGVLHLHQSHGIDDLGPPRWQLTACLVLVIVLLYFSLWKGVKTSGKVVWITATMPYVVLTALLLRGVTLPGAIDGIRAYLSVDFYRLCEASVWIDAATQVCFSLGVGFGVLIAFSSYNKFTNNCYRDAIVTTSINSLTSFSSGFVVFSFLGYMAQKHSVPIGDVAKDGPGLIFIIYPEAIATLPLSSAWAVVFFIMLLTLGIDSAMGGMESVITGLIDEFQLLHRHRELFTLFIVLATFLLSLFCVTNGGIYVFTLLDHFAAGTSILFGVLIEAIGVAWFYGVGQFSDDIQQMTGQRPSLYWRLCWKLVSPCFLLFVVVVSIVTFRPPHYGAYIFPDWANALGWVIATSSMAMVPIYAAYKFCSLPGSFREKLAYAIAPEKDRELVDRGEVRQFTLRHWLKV
T2 sequence (P31645 whole entry): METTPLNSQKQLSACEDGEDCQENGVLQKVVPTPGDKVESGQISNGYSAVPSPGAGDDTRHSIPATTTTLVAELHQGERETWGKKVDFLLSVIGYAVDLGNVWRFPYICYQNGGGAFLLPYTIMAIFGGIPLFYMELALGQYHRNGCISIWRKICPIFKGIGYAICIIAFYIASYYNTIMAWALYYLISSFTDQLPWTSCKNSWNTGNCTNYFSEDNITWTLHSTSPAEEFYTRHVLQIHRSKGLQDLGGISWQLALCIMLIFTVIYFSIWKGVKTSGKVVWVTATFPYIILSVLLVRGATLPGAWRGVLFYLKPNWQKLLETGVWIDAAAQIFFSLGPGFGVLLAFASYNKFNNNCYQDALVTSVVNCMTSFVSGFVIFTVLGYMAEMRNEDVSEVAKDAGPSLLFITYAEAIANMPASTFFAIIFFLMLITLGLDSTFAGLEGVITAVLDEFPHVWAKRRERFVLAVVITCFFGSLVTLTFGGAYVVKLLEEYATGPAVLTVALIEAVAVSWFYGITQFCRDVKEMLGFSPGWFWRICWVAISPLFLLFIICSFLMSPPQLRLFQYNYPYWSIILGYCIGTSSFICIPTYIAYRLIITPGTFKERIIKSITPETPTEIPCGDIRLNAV
T1 sequence (P23975 whole entry): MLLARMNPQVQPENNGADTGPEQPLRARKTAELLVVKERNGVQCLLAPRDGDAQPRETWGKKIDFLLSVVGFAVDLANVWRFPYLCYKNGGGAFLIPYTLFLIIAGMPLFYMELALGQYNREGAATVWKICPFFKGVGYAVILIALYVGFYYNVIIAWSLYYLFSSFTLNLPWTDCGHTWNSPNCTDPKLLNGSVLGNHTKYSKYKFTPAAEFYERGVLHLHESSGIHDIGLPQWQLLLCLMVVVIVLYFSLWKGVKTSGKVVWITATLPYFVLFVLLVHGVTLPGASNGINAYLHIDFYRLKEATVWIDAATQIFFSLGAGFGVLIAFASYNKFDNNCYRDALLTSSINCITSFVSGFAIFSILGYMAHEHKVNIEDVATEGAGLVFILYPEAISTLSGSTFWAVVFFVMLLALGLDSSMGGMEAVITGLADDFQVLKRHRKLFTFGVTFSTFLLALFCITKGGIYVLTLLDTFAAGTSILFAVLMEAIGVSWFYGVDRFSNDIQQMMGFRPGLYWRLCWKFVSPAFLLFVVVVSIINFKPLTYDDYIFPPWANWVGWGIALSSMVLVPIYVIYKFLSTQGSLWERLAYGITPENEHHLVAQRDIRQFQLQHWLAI

With `COc1ccc(C2=NN(CCCCCNCC[C@@H](Oc3cccc4ccccc34)c3cccs3)C(=O)[C@@H]3CC=CC[C@H]23)cc1OC`, the IC50 in experiment [1] was determined as 2100 nM; in experiment [2] it was 442 nM; in experiment [4], 1790 nM; in experiment [5], 45 nM. For the same molecule, the Ki in experiment [3] was found to be 3240 nM; in experiment [6], 127 nM; in experiment [7], 857 nM.

For `COc1ccc(C2=NN(CCCCCNCC[C@H](Oc3cccc4ccccc34)c3cccs3)C(=O)[C@@H]3CC=CC[C@H]23)cc1OC`, the IC50 came out at 2190 nM in experiment [1], 404 nM in experiment [2], 6630 nM in experiment [4] and 23 nM in experiment [5]. The figures for the Ki in experiment [3], in experiment [6] and in experiment [7] were > 100000 nM, 726 nM and 4600 nM, respectively.

Turning to `COc1ccc(C2=NNC(=O)[C@@H]3CC=CC[C@H]23)cc1OC` (relative stereo), the IC50 in experiment [1] was > 100000 nM; in experiment [2], > 100000 nM; in experiment [4], > 100000 nM; in experiment [5], 213 nM. The inhibition constant (Ki) in experiment [3], in experiment [6] and in experiment [7] was > 100000 nM throughout.

On to `NCC[C@H](Oc1cccc2ccccc12)c1cccs1` [(S)-NORDULOXETINE], for which the IC50 in experiment [1] is 445 nM; in experiment [2], 25.6 nM; in experiment [4], > 10000 nM; in experiment [5], > 100000 nM. Also, the values for the Ki in experiment [3], in experiment [6] and in experiment [7] were 2400 nM, 18 nM and > 10000 nM, respectively.

Turning to `NCC[C@@H](Oc1cccc2ccccc12)c1cccs1` [R-NORDULOXETINE], the IC50 in experiment [1] was 188 nM; in experiment [2] it was 6.8 nM; in experiment [4], > 10000 nM; in experiment [5] it was > 100000 nM. Moreover, the figures for the Ki in experiment [3], in experiment [6] and in experiment [7] were 953 nM, 8.3 nM and 3550 nM, respectively.
